From ChEMBL document CHEMBL1122776, “Synthesis and antitumor activity of some aromatic seleno lactones” (J Med Chem, 1984)

Experiments:
Assay type in all cases: cell-based
Settings in all cases: read-out: LD50
[1] = In vitro cytotoxic activity against of human colon tumor-8r cells in culture and LD50 was reported at the end of incubation period of 24 hours.
[2] = In vitro cytotoxic activity against human colon tumor-8r cells in culture and LD50 was reported at the end of incubation period of 72 hours.
[3] = In vitro cytotoxic activity against human colon tumor-8r cells in culture and LD50 was reported at the end of incubation period of 48 hours.
[4] = In vitro cytotoxic activity against human colon tumor-8r cells in culture and LD50 was reported at the end of incubation period of 24 hours.
[5] = In vitro cytotoxic activity against of human colon tumor-8r cells in culture and LD50 was reported at the end of incubation period of 72 hours.
[6] = In vitro cytotoxic activity against of human colon tumor-8r cells in culture and LD50 was reported at the end of incubation period of 48 hours.

Row | Compound | CC50 at 24 h [1] | CC50 at 72 h [2] | CC50 at 48 h [3] | CC50 at 24 h [4] | CC50 at 72 h [5] | CC50 at 48 h [6]
1 | CC(=O)Oc1cccc2c1CC(C[Se]c1ccccc1)C(=O)O2 (centres undefined) | 290 µM | 180 µM | 240 µM | – | – | –
2 | CCCCCCCCCC(=O)Oc1cccc2c1CC(C[Se]c1ccccc1)C(=O)O2 (centres undefined) | – | 140 µM | 150 µM | 230 µM | – | –
3 | CCC(=O)Oc1cccc2c1CC(C[Se]c1ccccc1)C(=O)O2 (centres undefined) | – | – | – | 310 µM | 210 µM | 250 µM
4 | O=C1Oc2cccc(OC3CCCCO3)c2CC1C[Se]c1ccccc1 (centres undefined) | – | 150 µM | 190 µM | 260 µM | – | –
5 | CCCCCCCC(=O)Oc1cccc2c1CC(C[Se]c1ccccc1)C(=O)O2 (centres undefined) | 300 µM | – | – | – | 180 µM | 230 µM
6 | O=C1Oc2cccc(O)c2CC1C[Se]c1ccccc1 (centres undefined) | – | 230 µM | 280 µM | 330 µM | – | –
7 | CCCC(=O)Oc1cccc2c1CC(C[Se]c1ccccc1)C(=O)O2 (centres undefined) | – | 320 µM | 270 µM | 370 µM | – | –
8 | Sc1ncnc2nc[nH]c12 [MERCAPTOPURINE ANHYDROUS] | – | 280 µM | 350 µM | 760 µM | – | –
